Source: patent US11390624B2, “Pyrazolopyridines and triazolopyridines as A2A / A2B inhibitors” (Incyte Corporation, priority 2019, dated 2022)

Assays:
[1] = target: Adenosine A2A receptor (Tag-lite Adenosine A2A labeled cells) (Homo sapiens (Human), UniProt P29274); test: A2A Tag-lite HTRF Assay; assay type: binding; details: displacement of Adenosine A2A Receptor Red antagonist fluorescent ligand, 12.5 nM
Text: The final concentration of DMSO was 1%.

[2] = target: human adenosine A2B receptor (Homo sapiens (Human), UniProt P29275); test: Adenosine A2B Receptor Cyclic AMP GS Assay; assay type: cell-based; details: HEK-293 cells, agonist NECA at 12 nM, cAMP accumulation; read-out: A2B—cAMP_EC50
Chain of human adenosine A2B receptor (P29275 whole entry): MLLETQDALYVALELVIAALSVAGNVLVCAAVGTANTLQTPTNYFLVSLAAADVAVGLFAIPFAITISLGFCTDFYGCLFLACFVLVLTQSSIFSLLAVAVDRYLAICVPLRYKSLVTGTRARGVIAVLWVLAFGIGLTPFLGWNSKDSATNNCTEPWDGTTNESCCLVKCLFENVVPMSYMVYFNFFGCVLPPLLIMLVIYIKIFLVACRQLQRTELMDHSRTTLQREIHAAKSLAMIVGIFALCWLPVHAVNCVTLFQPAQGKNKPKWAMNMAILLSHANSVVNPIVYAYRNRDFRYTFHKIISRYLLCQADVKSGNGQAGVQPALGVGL
Protocol: Stably transfected HEK-293 cells expressing the human adenosine A2B receptor (Perkin Elmer) were maintained in MEM culture medium with 10% FBS and 100 μg/mL Geneticin (Life Technologies). 18 to 24 hours prior to assay, geneticin was removed from culture. The cisbio cAMP-GS Dynamic kit utilizing the FRET (Fluorescence Resonance Energy Transfer) technology was used to measure cAMP accumulation in the cells. Compounds of the present disclosure at an appropriate concentration were mixed with 10000 cells/well in white 96 well half area plates (Perkin Elmer) for 30 min at room temperature gently shaking. Agonist, NECA (R&D Technologies) at 12 nM was added to each well for 60 min at room temperature gently shaking. Detection reagents, d2-labeled cAMP (acceptor) and anti-cAMP cryptate (donor) were added to each well for 60 min at RT gently shaking. Plates were read on Pherastar (BMG Labtech), fluorescence ratio 665/620 was calculated and EC50 determination was performed by fitting the curve of percent of control versus the log of the compound concentration using GraphPad Prism.

Chain of Adenosine A2A receptor (Tag-lite Adenosine A2A labeled cells) (P29274 whole entry): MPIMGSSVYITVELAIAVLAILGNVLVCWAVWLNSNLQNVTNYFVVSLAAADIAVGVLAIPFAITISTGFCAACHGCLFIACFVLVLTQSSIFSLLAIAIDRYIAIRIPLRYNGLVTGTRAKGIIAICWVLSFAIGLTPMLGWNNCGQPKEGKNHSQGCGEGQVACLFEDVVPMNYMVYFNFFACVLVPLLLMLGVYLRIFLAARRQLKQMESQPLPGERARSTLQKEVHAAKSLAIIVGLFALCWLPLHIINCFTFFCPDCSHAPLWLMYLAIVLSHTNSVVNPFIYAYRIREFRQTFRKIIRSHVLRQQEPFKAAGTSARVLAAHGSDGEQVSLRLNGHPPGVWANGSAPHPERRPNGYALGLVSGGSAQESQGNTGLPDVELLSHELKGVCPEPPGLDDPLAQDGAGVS

SMILES | Ki [1] | EC50 [2]
N#Cc1cccc(-c2nc(N)c3nn(Cc4ccccn4)cc3c2-c2ccncn2)c1 [Example 8, 3-(7-amino-2-(pyridin-2-ylmethyl)-4-(pyrimidin-4-yl)-2H-pyrazolo[3,4-c]pyridin-5-yl)benzonitrile] | ≤ 10 nM | ≤ 10 nM
Cc1ncoc1-c1c(-c2cccc(C#N)c2)nc(N)c2nn(C(C)c3ccccn3)nc12 (stereo not drawn) [Example 46, 3-(4-amino-7-(4-methyloxazol-5-yl)-2-(1-(pyridin-2-yl)ethyl)-2H-[1,2,3]triazolo[4,5-c]pyridin-6-yl)benzonitrile] | ≤ 10 nM | ≤ 10 nM
Cc1ncoc1-c1c(-c2cccc(C#N)c2F)nc(N)c2nn(Cc3ccccn3)nc12 [Example 41, 3-(4-amino-7-(4-methyloxazol-5-yl)-2-(pyridin-2-ylmethyl)-2H-[1,2,3]triazolo[4,5-c]pyridin-6-yl)-2-fluorobenzonitrile] | ≤ 10 nM | ≤ 10 nM
N#Cc1cccc(-c2nc(N)c3nn(Cc4ccccn4)nc3c2-c2ccncn2)c1 [Example 16, 3-(4-amino-2-(pyridin-2-ylmethyl)-7-(pyrimidin-4-yl)-2H-[1,2,3]triazolo[4,5-c]pyridin-6-yl)benzonitrile] | ≤ 10 nM | ≤ 10 nM
CCn1nccc1-c1c(-c2cccc(C#N)c2F)nc(N)c2nn(Cc3ccccn3)nc12 [Example 38, 3-(4-amino-7-(1-ethyl-1H-pyrazol-5-yl)-2-(pyridin-2-ylmethyl)-2H-[1,2,3]triazolo[4,5-c]pyridin-6-yl)-2-fluorobenzonitrile] | ≤ 10 nM | ≤ 10 nM
Cc1nc(CO)c(-c2c(-c3cccc(C#N)c3F)nc(N)c3nn(Cc4ccccn4)nc23)o1 [Example 42, 3-(4-amino-7-(4-(hydroxymethyl)-2-methyloxazol-5-yl)-2-(pyridin-2-ylmethyl)-2H-[1,2,3]triazolo[4,5-c]pyridin-6-yl)-2-fluorobenzonitrile] | ≤ 10 nM | 10 to 100 nM
CCn1nccc1-c1c(-c2cccc(C#N)c2)nc(N)c2nn(Cc3ccccn3)cc12 [Example 9, 3-(7-amino-4-(1-ethyl-1H-pyrazol-5-yl)-2-(pyridin-2-ylmethyl)-2H-pyrazolo[3,4-c]pyridin-5-yl)benzonitrile] | ≤ 10 nM | ≤ 10 nM
Cc1cccc(Cn2nc3c(N)nc(-c4cccc(C#N)c4)c(-c4ccncc4)c3n2)n1 [Example 25, 3-(4-amino-2-((6-methylpyridin-2-yl)methyl)-7-(pyridin-4-yl)-2H-[1,2,3]triazolo[4,5-c]pyridin-6-yl)benzonitrile] | ≤ 10 nM | ≤ 10 nM
CC(c1ccccn1)n1nc2c(N)nc(-c3cccc(C#N)c3)c(-c3ccncn3)c2n1 (stereo not drawn) [Example 47, 3-(4-amino-2-(1-(pyridin-2-yl)ethyl)-7-(pyrimidin-4-yl)-2H-[1,2,3]triazolo[4,5-c]pyridin-6-yl)benzonitrile] | ≤ 10 nM | 100 to 1000 nM
N#Cc1cccc(-c2nc(N)c3nn(Cc4ncccc4F)nc3c2-c2ccc3nccnc3c2)c1 [Example 37, 3-(4-amino-2-((3-fluoropyridin-2-yl)methyl)-7-(quinoxalin-6-yl)-2H-[1,2,3]triazolo[4,5-c]pyridin-6-yl)benzonitrile] | ≤ 10 nM | 10 to 100 nM
CC(C)n1nccc1-c1c(-c2cccc(C#N)c2F)nc(N)c2nn(Cc3ccccn3)nc12 [Example 40, 3-(4-amino-7-(1-isopropyl-1H-pyrazol-5-yl)-2-(pyridin-2-ylmethyl)-2H-[1,2,3]triazolo[4,5-c]pyridin-6-yl)-2-fluorobenzonitrile] | ≤ 10 nM | ≤ 10 nM
Cc1cnccc1-c1c(-c2cccc(C#N)c2)nc(N)c2nn(Cc3ccccn3)nc12 [Example 19, 3-(4-amino-7-(3-methylpyridin-4-yl)-2-(pyridin-2-ylmethyl)-2H-[1,2,3]triazolo[4,5-c]pyridin-6-yl)benzonitrile] | ≤ 10 nM | ≤ 10 nM
N#Cc1cccc(-c2nc(N)c3nn(Cc4ccccn4)nc3c2-c2cnco2)c1 [Example 21, 3-(4-amino-7-(oxazol-5-yl)-2-(pyridin-2-ylmethyl)-2H-[1,2,3]triazolo[4,5-c]pyridin-6-yl)benzonitrile] | ≤ 10 nM | ≤ 10 nM
N#Cc1cccc(-c2nc(N)c3nn(Cc4ccccn4)nc3c2-c2ccc3nccnc3c2)c1F [Example 43, 3-(4-amino-2-(pyridin-2-ylmethyl)-7-(quinoxalin-6-yl)-2H-[1,2,3]triazolo[4,5-c]pyridin-6-yl)-2-fluorobenzonitrile] | ≤ 10 nM | 100 to 1000 nM
CCn1nccc1-c1c(-c2cccc(C#N)c2)nc(N)c2nn(Cc3cccc(C)n3)nc12 [Example 28, 3-(4-amino-7-(1-ethyl-1H-pyrazol-5-yl)-2-((6-methylpyridin-2-yl)methyl)-2H-[1,2,3]triazolo[4,5-c]pyridin-6-yl)benzonitrile] | ≤ 10 nM | ≤ 10 nM
Cn1ccc(Cn2nc3c(N)nc(-c4cccc(C#N)c4)c(-c4ccncn4)c3n2)n1 [Example 44, 3-(4-amino-2-((1-methyl-1H-pyrazol-3-yl)methyl)-7-(pyrimidin-4-yl)-2H-[1,2,3]triazolo[4,5-c]pyridin-6-yl)benzonitrile] | ≤ 10 nM | ≤ 10 nM
CCn1nccc1-c1c(-c2cccc(C#N)c2)nc(N)c2cn(Cc3ccccn3)nc12 [Example 2, 3-(4-amino-7-(1-ethyl-1H-pyrazol-5-yl)-2-(pyridin-2-ylmethyl)-2H-pyrazolo[4,3-c]pyridin-6-yl)benzonitrile] | ≤ 10 nM | ≤ 10 nM
Cn1cc(-c2c(-c3cccc(C#N)c3)nc(N)c3nn(Cc4ncccc4F)nc23)ccc1=O [Example 32, 3-(4-amino-2-((3-fluoropyridin-2-yl)methyl)-7-(1-methyl-6-oxo-1,6-dihydropyridin-3-yl)-2H-[1,2,3]triazolo[4,5-c]pyridin-6-yl)benzonitrile] | ≤ 10 nM | 10 to 100 nM
CCn1nccc1-c1c(-c2cccc(C#N)c2)nc(N)c2nn(Cc3ncccc3F)cc12 [Example 14, 3-(7-amino-4-(1-ethyl-1H-pyrazol-5-yl)-2-((3-fluoropyridin-2-yl)methyl)-2H-pyrazolo[3,4-c]pyridin-5-yl)benzonitrile] | ≤ 10 nM | ≤ 10 nM
Cn1nccc1-c1c(-c2cccc(C#N)c2F)nc(N)c2nn(Cc3ccccn3)nc12 [Example 39, 3-(4-amino-7-(1-methyl-1H-pyrazol-5-yl)-2-(pyridin-2-ylmethyl)-2H-[1,2,3]triazolo[4,5-c]pyridin-6-yl)-2-fluorobenzonitrile] | ≤ 10 nM | ≤ 10 nM
N#Cc1cccc(-c2nc(N)c3nn(Cc4ncccc4F)nc3c2-c2ccncn2)c1 [Example 30, 3-(4-amino-2-((3-fluoropyridin-2-yl)methyl)-7-(pyrimidin-4-yl)-2H-[1,2,3]triazolo[4,5-c]pyridin-6-yl)benzonitrile] | ≤ 10 nM | ≤ 10 nM
Cc1ncoc1-c1c(-c2cccc(C#N)c2)nc(N)c2nn(CCc3ccccn3)nc12 [Example 48, 3-(4-amino-7-(4-methyloxazol-5-yl)-2-(2-(pyridin-2-yl)ethyl)-2H-[1,2,3]triazolo[4,5-c]pyridin-6-yl)benzonitrile] | ≤ 10 nM | 10 to 100 nM
CCn1nccc1-c1c(-c2cccc(C#N)c2)nc(N)c2nn(Cc3ccccn3)nc12 [Example 18, 3-(4-amino-7-(1-ethyl-1H-pyrazol-5-yl)-2-(pyridin-2-ylmethyl)-2H-[1,2,3]triazolo[4,5-c]pyridin-6-yl)benzonitrile] | ≤ 10 nM | ≤ 10 nM
Cc1ncoc1-c1c(-c2cccc(C#N)c2)nc(N)c2nn(Cc3ccccn3)nc12 [Example 17, 3-(4-amino-7-(4-methyloxazol-5-yl)-2-(pyridin-2-ylmethyl)-2H-[1,2,3]triazolo[4,5-c]pyridin-6-yl)benzonitrile] | ≤ 10 nM | ≤ 10 nM
